Earlier results on two compounds are cited in patent US8679548B2, “Active bromine containing biocidal compositions and their preparation” (Albemarle Corporation, priority 1998, dated 2014).

As to `BrBr` [Bromine (Br2), Bromine], the “Vapor Pressure (25° C.)” value is reported as 214 mm.

As to `ClBr` [Bromine Chloride (BrCl), Bromine Chloride], the “Vapor Pressure (25° C.)” value is on record as 1800 mm.
